Reference: patent publication US11814367B2, “Inhibitors of glycogen synthase 1 (GYS1) and methods of use thereof” (Maze Therapeutics, Inc., priority 2021, dated 2023)

Key:
[1] = target: hGYS1 enzyme (recombinant hGYS1/GN1 protein) (Homo sapiens (Human), UniProt P13807); assay: GYS1 coupled enzyme assay (PK/LDH); type: biochemical; details: hGYS1/GN1 50 nM, UDP-Glucose 0.8 mM, G6P 1 mM; geometric mean of at least 2 runs
[2] = target: hGYS2 enzyme (recombinant hGYS2/GN1 protein) (Homo sapiens (Human), UniProt P54840); assay: GYS2 coupled enzyme assay (PK/LDH); type: biochemical; details: geometric mean of at least 2 assay runs on separate days, read-out: Avg_IC50
hGYS2 enzyme (recombinant hGYS2/GN1 protein), sequence (P54840 whole entry): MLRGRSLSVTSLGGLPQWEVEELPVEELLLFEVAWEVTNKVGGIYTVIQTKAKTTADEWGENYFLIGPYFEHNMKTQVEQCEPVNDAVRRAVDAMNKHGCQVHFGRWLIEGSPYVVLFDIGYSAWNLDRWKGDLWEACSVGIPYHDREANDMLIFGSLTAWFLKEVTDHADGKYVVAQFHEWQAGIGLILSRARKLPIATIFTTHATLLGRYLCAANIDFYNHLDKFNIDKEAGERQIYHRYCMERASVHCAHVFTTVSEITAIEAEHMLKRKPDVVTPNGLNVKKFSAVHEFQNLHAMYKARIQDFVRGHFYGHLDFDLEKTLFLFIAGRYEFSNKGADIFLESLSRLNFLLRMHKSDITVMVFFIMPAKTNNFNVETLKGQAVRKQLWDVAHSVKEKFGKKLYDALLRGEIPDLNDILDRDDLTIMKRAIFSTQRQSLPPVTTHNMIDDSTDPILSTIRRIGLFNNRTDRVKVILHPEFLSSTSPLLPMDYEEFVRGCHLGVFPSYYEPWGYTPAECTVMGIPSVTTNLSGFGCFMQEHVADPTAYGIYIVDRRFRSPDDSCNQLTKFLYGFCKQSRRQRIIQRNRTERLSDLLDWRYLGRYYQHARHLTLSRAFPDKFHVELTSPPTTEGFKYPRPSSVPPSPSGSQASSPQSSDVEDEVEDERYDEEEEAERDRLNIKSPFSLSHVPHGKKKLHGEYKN
hGYS2 enzyme (recombinant hGYS2/GN1 protein), sequence (P46976 whole entry partner): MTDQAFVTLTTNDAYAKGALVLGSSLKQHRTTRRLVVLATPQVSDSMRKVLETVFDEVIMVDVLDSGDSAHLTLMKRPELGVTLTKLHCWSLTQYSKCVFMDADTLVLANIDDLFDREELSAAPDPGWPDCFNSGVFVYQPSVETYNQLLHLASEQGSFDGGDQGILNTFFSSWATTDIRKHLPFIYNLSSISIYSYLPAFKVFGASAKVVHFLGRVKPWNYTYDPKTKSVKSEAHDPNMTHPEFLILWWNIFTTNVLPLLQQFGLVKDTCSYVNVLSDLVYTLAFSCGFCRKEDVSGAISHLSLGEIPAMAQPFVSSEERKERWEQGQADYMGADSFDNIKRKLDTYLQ
In short: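 Continuous PK/LDH-coupled readout of NADH loss at 340 nm over 10 min, with 200 nM hGYS2/GN1 and 2 mM each of UDP-glucose, glucose-6-phosphate and PEP, in 50 mM Tris pH 7.5 with 0.2% glycogen and 2.5% DMSO. Slopes were normalized to controls and IC50s fit to a Hill curve from duplicates.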

[3] = tested on: hGYS1 enzyme / glycogen synthesis in HeLa cells; assay: GYS1 cell based assay (glycogen synthesis, Glucose-glo); design: species or system human; details: Homo sapiens, HeLa, 24 h, 24 h incubation, 20 mM glucose, geometric mean of at least 2 runs
In short: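 HeLa cells starved 24 h in medium containing only 1× Glutamax were plated onto compound in medium with 20 mM glucose (1% DMSO final) for 24 h, 37 °C, 5% CO2. Acid lysates were Tris-quenched, glucoamylase-digested (pH 5.3, 1 h, 37 °C) and read by Glucose-glo luminescence. IC50 came from Hill fits, as geometric mean of ≥2 runs.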

hGYS1 enzyme (recombinant hGYS1/GN1 protein), sequence (P13807 whole entry): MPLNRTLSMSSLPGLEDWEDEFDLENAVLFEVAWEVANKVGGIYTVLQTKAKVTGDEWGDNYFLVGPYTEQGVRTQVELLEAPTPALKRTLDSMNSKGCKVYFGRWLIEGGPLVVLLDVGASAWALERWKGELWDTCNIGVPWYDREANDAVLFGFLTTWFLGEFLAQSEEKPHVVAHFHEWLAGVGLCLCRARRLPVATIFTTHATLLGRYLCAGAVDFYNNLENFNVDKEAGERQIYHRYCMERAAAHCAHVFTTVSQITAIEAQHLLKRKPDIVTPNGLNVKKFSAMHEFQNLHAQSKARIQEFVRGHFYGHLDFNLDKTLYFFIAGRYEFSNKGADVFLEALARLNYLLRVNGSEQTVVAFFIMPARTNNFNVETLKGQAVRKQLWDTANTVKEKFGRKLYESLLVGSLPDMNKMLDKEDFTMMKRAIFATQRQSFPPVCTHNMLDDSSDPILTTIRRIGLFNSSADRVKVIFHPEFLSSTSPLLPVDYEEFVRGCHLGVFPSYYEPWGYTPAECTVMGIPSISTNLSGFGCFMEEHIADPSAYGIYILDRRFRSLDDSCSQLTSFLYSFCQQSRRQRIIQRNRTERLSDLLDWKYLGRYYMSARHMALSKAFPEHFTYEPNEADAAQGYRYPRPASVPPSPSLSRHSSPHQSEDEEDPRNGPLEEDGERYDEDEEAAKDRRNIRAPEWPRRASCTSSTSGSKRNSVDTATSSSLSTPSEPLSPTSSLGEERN
hGYS1 enzyme (recombinant hGYS1/GN1 protein), sequence (P46976 whole entry partner): as the sequence (P46976 whole entry partner) above

| Compound | IC50 [1] | IC50 [2] | IC50 [3] |
| --- | --- | --- | --- |
| CNC(=O)NCC(=O)N1C[C@H](F)C[C@H]1C(=O)N[C@@H](c1ccccc1)c1ccc(C(C)C)c(F)n1 [Compound 395, (2S,4R)-4-fluoro-N-[(S)-[6-fluoro-5-(propan-2-yl)pyridin-2-yl](phenyl)methyl]-1-{2-[(methylcarbamoyl)amino]acetyl}pyrrolidine-2-carboxamide] | 8 nM | > 100000 nM | 240 nM |
| CC(C)c1ccc([C@@H](NC(=O)[C@@H]2C[C@@H](F)CN2C(=O)Cc2[nH]nnc2C(F)(F)F)c2ccccc2)nc1F [Compound 403, (2S,4R)-4-fluoro-N-[(S)-[6-fluoro-5-(propan-2-yl)pyridin-2-yl](phenyl)methyl]-l-{2-[4-(trifluoromethyl)-1H-1,2,3-triazol-5-yl]acetyl}pyrrolidine-2-carboxamide] | 4 nM | > 100000 nM | 140 nM |
| Cc1nccc(NCC(=O)N2C[C@H](F)C[C@H]2C(=O)N[C@@H](c2ccccc2)c2ccc(C(C)C)c(F)n2)n1 [Compound 404, (2S,4R)-4-fluoro-N-[(S)-[6-fluoro-5-(propan-2-yl)pyridin-2-yl](phenyl)methyl]-1-{2-[(2-methylpyrimidin-4-yl)amino]acetyl} pyrrolidine-2-carboxamide] | 6 nM | > 100000 nM | 70 nM |
| CC(C)c1ccc([C@@H](NC(=O)[C@@H]2C[C@@H](F)CN2C(=O)[C@H](C)NC(=O)N(C)C)c2ccccc2)nc1F [Compound 405, (2S,4R)-1-[(2S)-2-[(dimethylcarbamoyl)amino]propanoyl]-4-fluoro-N-[(S)-[6-fluoro-5-(propan-2-yl)pyridin-2-yl](phenyl)methyl] pyrrolidine-2-carboxamide] | 20 nM | > 100000 nM | 490 nM |
| CC(C)c1ccc([C@@H](NC(=O)[C@@H]2C[C@@H](F)CN2C(=O)[C@@H](C)NC(=O)N(C)C)c2ccccc2)nc1F [Compound 406, (2S,4R)-1-[(2R)-2-[(dimethylcarbamoyl)amino]propanoyl]-4-fluoro-N-[(S)-[6-fluoro-5-(propan-2-yl)pyridin-2-yl](phenyl)methyl] pyrrolidine-2-carboxamide] | 41 nM | > 100000 nM | 760 nM |
| CC(C)c1ccc([C@@H](NC(=O)[C@@H]2C[C@@H](F)CN2C(=O)Cc2ncco2)c2ccccc2)nc1F [Compound 407, (2S,4R)-4-fluoro-N-[(S)-[6-fluoro-5-(propan-2-yl)pyridin-2-yl](phenyl)methyl]-1-[2-(1,3-oxazol-2-yl)acetyl]pyrrolidine-2-carboxamide] | 15 nM | > 100000 nM | 420 nM |
| Cc1cnc(CC(=O)N2C[C@H](F)C[C@H]2C(=O)N[C@@H](c2ccccc2)c2ccc(C(C)C)c(F)n2)o1 [Compound 408, (2S,4R)-4-fluoro-N-[(S)-[6-fluoro-5-(propan-2-yl)pyridin-2-yl](phenyl)methyl]-1-[2-(5-methyl-1,3-oxazol-2-yl)acetyl] pyrrolidine-2-carboxamide] | 8 nM | > 100000 nM | 350 nM |
| CC(C)c1ccc([C@@H](NC(=O)[C@@H]2C[C@@H](F)CN2C(=O)CNC(=O)N2CC(F)(F)C2)c2ccccc2)nc1F [Compound 410, (2S,4R)-1-{2-[(3,3-difluoroazetidine-1-carbonyl)amino]acetyl}-4-fluoro-N-[(S)-[6-fluoro-5-(propan-2-yl)pyridin-2-yl](phenyl)methyl]pyrrolidine-2-carboxamide] | 8 nM | > 100000 nM | 130 nM |
| Cc1nn(CC(=O)N2C[C@H](F)C[C@H]2C(=O)N[C@@H](c2ccccc2)c2ccc(C(C)C)c(F)n2)c(=O)o1 [Compound 411, (2S,4R)-4-fluoro-N-[(S)-[6-fluoro-5-(propan-2-yl)pyridin-2-yl](phenyl)methyl)-1-[2-(5-methyl-2-oxo-2,3-dihydro-1,3,4-oxadiazol-3-yl)acetyl]pyrrolidine-2-carboxamide] | 10 nM | > 100000 nM | 220 nM |
| CC(C)c1ccc([C@@H](NC(=O)[C@@H]2C[C@@H](F)CN2C(=O)Cn2ncc(N3CC(F)(F)C3)n2)c2ccccc2)nc1F [Compound 413, (2S,4R)-1-{2-[4-(3,3-difluoroazetidin-1-yl)-2H-1,2,3-triazol-2-yl]acetyl}-4-fluoro-N-[(S)-[6-fluoro-5-(propan-2-yl)pyridin-2-yl](phenyl)methyl] pyrrolidine-2-carboxamide] | 6 nM | > 100000 nM | 160 nM |

More lines, in order of falling IC50 [1], values ahead:

| IC50 [1] | IC50 [2] | IC50 [3] | Compound |
| --- | --- | --- | --- |
| 59 nM | > 100000 nM | 850 nM | CC(C)c1ccc([C@@H](NC(=O)[C@@H]2C[C@@H](F)CN2C(=O)Cc2noc(=O)n2C)c2ccccc2)nc1F [Compound 402, (2S,4R)-4-fluoro-N-[(S)-[6-fluoro-5-(propan-2-yl)pyridin-2-yl](phenyl)methyl]-1-[2-(4-methyl-5-oxo-4,5-dihydro-1,2,4-oxadiazol-3-yl)acetyl]pyrrolidine-2-carboxamide] |
| 48 nM | > 100000 nM | 710 nM | CC(C)c1ccc([C@@H](NC(=O)[C@@H]2[C@H]3C[C@H]3CN2C(=O)Cc2cnn[nH]2)c2ccccc2)nc1F [Compound 415, (1S,2S,5R)-N-[(S)-[6-fluoro-5-(propan-2-yl)pyridin-2-yl](phenyl)methyl]-3-[2-(1H-1,2,3-triazol-5-yl)acetyl]-3-azabicyclo[3.1.0] hexane-2-carboxamide] |
| 13 nM | > 100000 nM | 330 nM | CC(C)c1ccc([C@@H](NC(=O)[C@@H]2C[C@@H](F)CN2C(=O)CNC(N)=O)c2ccccc2)nc1F [Compound 396, (2S,4R)-1-[2-(carbamoylamino)acetyl]-4-fluoro-N-[(S)-[6-fluoro-5-(propan-2-yl)pyridin-2-yl](phenyl)methyl] pyrrolidine-2-carboxamide] |
| 12 nM | > 100000 nM | 170 nM | CC(C)c1ccc([C@@H](NC(=O)[C@@H]2C[C@@H](F)CN2C(=O)Cn2nnnc2C(F)F)c2ccccc2)nc1F [Compound 400, (2S,4R)-1-{2-[5-(difluoromethyl)-1H-1,2,3,4-tetrazol-1-yl]acetyl}-4-fluoro-N-[(S)-[6-fluoro-5-(propan-2-yl)pyridin-2-yl](phenyl)methyl] pyrrolidine-2-carboxamide] |
| 10 nM | > 100000 nM | 290 nM | CC(C)c1ccc([C@@H](NC(=O)[C@@H]2C[C@@H](F)CN2C(=O)Cc2nn(C)c(=O)o2)c2ccccc2)nc1F [Compound 401, (2S,4R)-4-fluoro-N-[(S)-[6-fluoro-5-(propan-2-yl)pyridin-2-yl](phenyl)methyl]-1-[2-(4-methyl-5-oxo-4,5-dihydro-1,3,4-oxadiazol-2-yl)acetyl]pyrrolidine-2-carboxamide] |
| 10 nM | > 100000 nM | 290 nM | Cc1coc(CC(=O)N2C[C@H](F)C[C@H]2C(=O)N[C@@H](c2ccccc2)c2ccc(C(C)C)c(F)n2)n1 [Compound 409, (2S,4R)-4-fluoro-N-[(S)-[6-fluoro-5-(propan-2-yl)pyridin-2-yl](phenyl)methyl]-1-[2-(4-methyl-1,3-oxazol-2-yl)acetyl] pyrrolidine-2-carboxamide] |
| 9 nM | > 100000 nM | 280 nM | CC(C)c1ccc([C@@H](NC(=O)[C@@H]2C[C@@H](F)CN2C(=O)Cc2n[nH]c(=O)n2C)c2ccccc2)nc1F [Compound 398, (2S,4R)-4-fluoro-N-[(S)-[6-fluoro-5-(propan-2-yl)pyridin-2-yl](phenyl)methyl]-1-[2-(4-methyl-5-oxo-4,5-dihydro-1H-1,2,4-triazol-3-yl)acetyl] pyrrolidine-2-carboxamide] |
| 8 nM | > 100000 nM | 150 nM | CC(C)c1ccc([C@@H](NC(=O)[C@@H]2C[C@@H](F)CN2C(=O)CNC(=O)N2CCC2)c2ccccc2)nc1F [Compound 399, (2S,4R)-1-{2-[(azetidine-1-carbonyl)amino]acetyl}-4-fluoro-N-[(S)-[6-fluoro-5-(propan-2-yl)pyridin-2-yl](phenyl)methyl] pyrrolidine-2-carboxamide] |
| 7 nM | > 100000 nM | 150 nM | CC(C)c1ccc([C@@H](NC(=O)[C@@H]2C[C@@H](F)CN2C(=O)CNC(=O)N(C)C)c2ccccc2)nc1F [Compound 394, (2S,4R)-1-{2-[(dimethylcarbamoyl)amino]acetyl}-4-fluoro-N-[(S)-[6-fluoro-5-(propan-2-yl)pyridin-2-yl](phenyl)methyl] pyrrolidine-2-carboxamide] |
| 7 nM | > 100000 nM | 120 nM | CC(C)c1ccc([C@@H](NC(=O)[C@@H]2C[C@@H](F)CN2C(=O)Cn2ncc(N3CCC3)n2)c2ccccc2)nc1F [Compound 412, (2S,4R)-1-{2-[4-(azetidin-1-yl)-2H-1,2,3-triazol-2-yl]acetyl}-4-fluoro-N-[(S)-[6-fluoro-5-(propan-2-yl)pyridin-2-yl](phenyl)methyl] pyrrolidine-2-carboxamide] |
| 3 nM | 78700 nM | 60 nM | CCN(CC)c1cnn(CC(=O)N2C[C@H](F)C[C@H]2C(=O)N[C@@H](c2ccccc2)c2ccc(C(C)C)c(F)n2)n1 [Compound 414] |
